# Measured values taken from US7595395B2, “Gabaergic agents to treat memory deficits” (priority 2005, dated 2009).
# Columns and labels:
# [1] = molecular target: α3β3γ2 GABAA receptor (Rattus norvegicus, UniProt P18508+P20236); experiment: Two-electrode voltage clamp in Xenopus oocytes, α3β3γ2
# [2] = molecular target: T1, α5β3γ2 benzodiazepine receptor GABA(A) isoform (UniProt P18507+P31644); experiment: Radioligand competition binding, α5β3γ2 BzR/GABA(A) isoform; set-up: rows headed: Ki at α5β3γ2 subtypes; other: text; α1-6β3γ2 LTK cells; species or system human and rat; conditions: read-out: Ki at α5β3γ2 subtypes; α1-6β3γ2 LTK cells
# T1 sequence (P18507 1-475): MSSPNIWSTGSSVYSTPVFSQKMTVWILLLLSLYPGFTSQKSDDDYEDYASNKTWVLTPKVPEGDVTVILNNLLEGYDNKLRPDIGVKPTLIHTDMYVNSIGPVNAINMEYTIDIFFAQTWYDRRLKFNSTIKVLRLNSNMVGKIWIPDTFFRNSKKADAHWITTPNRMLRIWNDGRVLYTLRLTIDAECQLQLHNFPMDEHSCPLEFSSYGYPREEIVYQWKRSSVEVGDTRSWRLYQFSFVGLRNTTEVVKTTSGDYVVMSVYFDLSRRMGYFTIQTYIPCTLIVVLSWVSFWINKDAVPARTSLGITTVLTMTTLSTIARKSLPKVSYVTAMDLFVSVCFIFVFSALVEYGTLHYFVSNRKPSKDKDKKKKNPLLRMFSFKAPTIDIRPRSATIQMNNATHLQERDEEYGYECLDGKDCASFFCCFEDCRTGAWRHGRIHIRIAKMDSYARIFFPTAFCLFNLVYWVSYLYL
# T1 sequence (P31644 1-462): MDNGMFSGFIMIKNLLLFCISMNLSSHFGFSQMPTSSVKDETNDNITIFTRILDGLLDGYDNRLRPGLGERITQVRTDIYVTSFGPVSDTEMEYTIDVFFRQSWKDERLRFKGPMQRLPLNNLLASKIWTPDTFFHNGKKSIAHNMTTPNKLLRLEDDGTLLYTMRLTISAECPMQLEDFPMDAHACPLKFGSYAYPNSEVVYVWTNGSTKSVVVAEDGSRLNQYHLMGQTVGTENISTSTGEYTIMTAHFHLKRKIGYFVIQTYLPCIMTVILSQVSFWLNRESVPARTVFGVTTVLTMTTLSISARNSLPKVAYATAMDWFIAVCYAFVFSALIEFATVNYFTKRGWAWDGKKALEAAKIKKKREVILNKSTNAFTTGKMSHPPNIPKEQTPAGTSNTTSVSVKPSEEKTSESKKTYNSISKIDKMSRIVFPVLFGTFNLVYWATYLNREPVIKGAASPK
# [3] = tested on: αxβ3γ2 (α = 1-6) BzR/GABA(A) subtypes; experiment: Binding across the BzR/GABA(A) subtypes (subtype selectivity in words); set-up: species or system human and rat
# Procedure: The binding affinity of XLi093 (8) in vitro was determined on α1-6β3γ2 LTK cells and is illustrated in the Scheme as shown in FIG. 2
# The affinity of all ligands at the 6 major recombinant GABAA/BzR subtypes was measured by competition for [^3H]Ro15-1788 binding to HEK-T cells expressing both human and rat GABAA/Bz receptors of composition α1β2γ2 (α1), α2β2γ2 (α2), α3β2γ2 (α3), α4β2γ2 (α4), α5β2γ2 (α5) and α6β2γ2 (α6). It is well known that the β2 and β3 subunits can be interchanged with no effect on Bz ligand affinity or efficacy. […] These studies are similar to those performed in the laboratory of Bryan Roth who has already expressed the receptors employing the work of Kucken et. al. and Gray et. al.
# In brief, for membrane preparations, the cells were scraped on to the ice and diluted into 5 mL of phosphate buffered saline (pH=7.40) and cells pelleted by centrifugation for 5 min. at 4° C. The pellet was resuspended in 1 mL of 50 mM Tris-acetate buffer (pH 7.4) and centrifuged at 18,000 g for 20 min. […] The membranes were harvested in polyethyleneimine-pretreated Whatman GF/C filters and after drying and addition of scintillation cocktail, counted in a scintillation counter. […]
# [4] = tested on: GABAA receptor subtypes (alpha 1 to alpha 6 with beta 3 and gamma 2); experiment: Direct triggering of chloride currents in oocytes, all tested subtypes; type: cell-based; conditions: no GABA
# [5] = Crossing of the blood brain barrier; conditions: in vivo
# [6] = molecular target: α1β3γ2 GABAA receptor (Rattus norvegicus, UniProt P18508+P62813); experiment: Two-electrode voltage clamp in Xenopus oocytes, α1β3γ2
# [7] = tested on: C57BL/6J mice; experiment: Titrating delayed matching-to-position schedule; type: in vivo
# Procedure: In regard to cognition, the effect of systemic administration of subtype selective agents on short term memory was determined in white Carneau pigeons. Administration of drug was intramuscularly and the titrating matching-to-sample schedule of reinforcement was used. […] In addition, C57BL/6J mice were used to look at the mean delay achieved in the titrating delayed matching-to-position schedule (doses, ip).
# [8] = molecular target: α5β3γ2 GABAA receptor (Rattus norvegicus, UniProt P18508+P19969); experiment: Two-electrode voltage clamp in Xenopus oocytes, α5β3γ2
# α5β3γ2 GABAA receptor, sequence (P19969 26-464): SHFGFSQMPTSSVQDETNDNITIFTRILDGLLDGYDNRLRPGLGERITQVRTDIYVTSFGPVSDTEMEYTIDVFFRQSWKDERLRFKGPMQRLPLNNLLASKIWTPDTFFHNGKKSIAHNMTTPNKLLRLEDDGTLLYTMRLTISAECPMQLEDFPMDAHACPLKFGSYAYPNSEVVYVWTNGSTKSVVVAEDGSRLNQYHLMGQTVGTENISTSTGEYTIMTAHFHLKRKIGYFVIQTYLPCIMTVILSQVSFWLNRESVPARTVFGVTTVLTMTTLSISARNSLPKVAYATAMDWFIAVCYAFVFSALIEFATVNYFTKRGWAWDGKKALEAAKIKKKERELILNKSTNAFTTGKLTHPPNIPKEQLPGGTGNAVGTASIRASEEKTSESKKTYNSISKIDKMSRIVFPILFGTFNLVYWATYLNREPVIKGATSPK
# α5β3γ2 GABAA receptor, sequence (P63079 26-473 partner): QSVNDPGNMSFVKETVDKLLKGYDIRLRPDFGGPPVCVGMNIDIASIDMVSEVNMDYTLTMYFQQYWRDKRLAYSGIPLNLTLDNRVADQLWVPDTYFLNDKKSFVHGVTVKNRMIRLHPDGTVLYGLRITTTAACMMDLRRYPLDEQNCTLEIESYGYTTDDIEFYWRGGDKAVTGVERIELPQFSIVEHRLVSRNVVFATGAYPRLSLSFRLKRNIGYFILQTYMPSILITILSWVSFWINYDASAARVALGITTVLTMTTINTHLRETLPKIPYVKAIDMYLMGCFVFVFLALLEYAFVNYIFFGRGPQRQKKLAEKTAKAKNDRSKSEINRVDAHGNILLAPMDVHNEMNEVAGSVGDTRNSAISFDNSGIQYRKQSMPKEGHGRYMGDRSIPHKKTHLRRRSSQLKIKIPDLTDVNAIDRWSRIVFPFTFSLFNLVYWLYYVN
# α5β3γ2 GABAA receptor, sequence (P18508 39-466): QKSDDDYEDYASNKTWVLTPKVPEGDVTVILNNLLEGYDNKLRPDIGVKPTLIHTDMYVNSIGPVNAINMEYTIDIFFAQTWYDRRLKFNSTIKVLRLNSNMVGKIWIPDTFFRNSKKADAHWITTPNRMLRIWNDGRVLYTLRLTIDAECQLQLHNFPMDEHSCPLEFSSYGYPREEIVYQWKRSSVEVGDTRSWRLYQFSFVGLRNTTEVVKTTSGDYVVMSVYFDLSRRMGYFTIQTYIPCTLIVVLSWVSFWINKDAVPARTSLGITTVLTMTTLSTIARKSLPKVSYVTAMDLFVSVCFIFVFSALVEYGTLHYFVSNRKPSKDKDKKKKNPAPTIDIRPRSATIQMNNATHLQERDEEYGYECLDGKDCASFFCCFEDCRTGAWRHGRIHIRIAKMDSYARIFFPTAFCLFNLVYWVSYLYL
# [9] = molecular target: α2β3γ2 GABAA receptor (Rattus norvegicus, UniProt P18508+P23576); experiment: Two-electrode voltage clamp in Xenopus oocytes, α2β3γ2
# α2β3γ2 GABAA receptor, sequence (P23576 29-451): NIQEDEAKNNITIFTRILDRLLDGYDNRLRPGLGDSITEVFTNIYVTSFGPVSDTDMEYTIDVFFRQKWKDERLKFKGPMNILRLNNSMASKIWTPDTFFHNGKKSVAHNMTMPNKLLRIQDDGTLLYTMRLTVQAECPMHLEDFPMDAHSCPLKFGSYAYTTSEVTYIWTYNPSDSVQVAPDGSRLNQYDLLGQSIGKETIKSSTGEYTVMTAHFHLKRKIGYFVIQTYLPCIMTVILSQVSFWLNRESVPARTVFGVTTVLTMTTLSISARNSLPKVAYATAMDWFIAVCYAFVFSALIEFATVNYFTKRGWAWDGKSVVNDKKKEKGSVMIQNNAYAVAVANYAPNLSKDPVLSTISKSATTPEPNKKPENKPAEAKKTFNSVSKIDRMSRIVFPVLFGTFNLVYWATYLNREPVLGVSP
# α2β3γ2 GABAA receptor, sequence (P63079 26-473 partner): as the sequence (P63079 26-473 partner) above
# α2β3γ2 GABAA receptor, sequence (P18508 39-466): as the sequence (P18508 39-466) above
# [10] = molecular target: α6β3γ2 GABAA receptor (Rattus norvegicus, UniProt P18508+P30191); experiment: Two-electrode voltage clamp in Xenopus oocytes, α6β3γ2
# [11] = molecular target: α4β3γ2 GABAA receptor (Rattus norvegicus, UniProt P18508+P28471); experiment: Two-electrode voltage clamp in Xenopus oocytes, α4β3γ2
# [12] = molecular target: GABAA/α1 receptors (Homo sapiens, UniProt P14867+P18507); conditions: Huang et al. 2000, WO 03/082832A2; cited from earlier work
# GABAA/α1 receptors, sequence (P14867 28-456, one chain of several): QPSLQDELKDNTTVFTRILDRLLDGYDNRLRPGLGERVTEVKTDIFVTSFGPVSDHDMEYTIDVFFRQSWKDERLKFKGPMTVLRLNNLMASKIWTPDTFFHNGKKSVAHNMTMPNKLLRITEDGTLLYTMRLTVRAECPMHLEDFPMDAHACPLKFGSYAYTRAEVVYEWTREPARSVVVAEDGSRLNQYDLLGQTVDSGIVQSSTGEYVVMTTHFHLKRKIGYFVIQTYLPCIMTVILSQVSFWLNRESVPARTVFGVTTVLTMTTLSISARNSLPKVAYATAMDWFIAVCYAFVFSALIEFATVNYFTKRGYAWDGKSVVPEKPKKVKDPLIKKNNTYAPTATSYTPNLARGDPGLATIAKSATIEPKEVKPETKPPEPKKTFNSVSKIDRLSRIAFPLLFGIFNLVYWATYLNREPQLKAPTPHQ
# GABAA/α1 receptors, sequence (P28472 26-473 partner, one chain of several): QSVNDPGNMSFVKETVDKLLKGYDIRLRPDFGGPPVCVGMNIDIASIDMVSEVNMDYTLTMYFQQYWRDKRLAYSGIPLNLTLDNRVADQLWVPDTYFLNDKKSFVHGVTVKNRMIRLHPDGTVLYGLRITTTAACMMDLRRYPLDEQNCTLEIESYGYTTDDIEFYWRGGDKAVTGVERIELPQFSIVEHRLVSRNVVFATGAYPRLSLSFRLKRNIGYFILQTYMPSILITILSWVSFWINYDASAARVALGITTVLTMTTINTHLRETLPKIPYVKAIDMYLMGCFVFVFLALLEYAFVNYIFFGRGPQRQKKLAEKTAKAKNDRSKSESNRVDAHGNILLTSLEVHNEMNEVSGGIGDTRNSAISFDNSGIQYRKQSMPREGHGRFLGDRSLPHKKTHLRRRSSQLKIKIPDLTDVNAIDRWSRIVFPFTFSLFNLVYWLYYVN
# [13] = molecular target: GABAA/α2 receptors (Homo sapiens, UniProt P18507+P47869); conditions: Huang et al. 2000, WO 03/082832A2; cited from earlier work
# [14] = molecular target: GABAA/α5 receptors (Homo sapiens, UniProt P18507+P31644); conditions: Huang et al. 2000, WO 03/082832A2; cited from earlier work
# [15] = molecular target: GABAA/α3 receptors (Homo sapiens, UniProt P18507+P34903); conditions: Huang et al. 2000, WO 03/082832A2; cited from earlier work
# [16] = tested on: C57B1/6 mice; conditions: DeLorey et al.; cited from earlier work
# α3β3γ2 GABAA receptor, sequence (P20236 29-493): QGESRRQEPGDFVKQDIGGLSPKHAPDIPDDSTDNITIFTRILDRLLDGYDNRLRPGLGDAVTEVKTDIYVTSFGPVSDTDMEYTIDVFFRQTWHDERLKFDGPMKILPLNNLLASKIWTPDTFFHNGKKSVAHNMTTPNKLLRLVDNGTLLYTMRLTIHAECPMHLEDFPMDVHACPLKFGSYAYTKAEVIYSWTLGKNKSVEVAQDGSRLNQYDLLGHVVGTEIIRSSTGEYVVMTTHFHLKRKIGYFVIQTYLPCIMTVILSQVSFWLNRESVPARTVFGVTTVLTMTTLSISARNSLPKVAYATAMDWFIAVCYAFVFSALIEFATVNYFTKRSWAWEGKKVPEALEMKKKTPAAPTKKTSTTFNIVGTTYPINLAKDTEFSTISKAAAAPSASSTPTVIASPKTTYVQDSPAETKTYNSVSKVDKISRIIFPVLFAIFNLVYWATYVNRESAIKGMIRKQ
# α3β3γ2 GABAA receptor, sequence (P63079 26-473 partner): as the sequence (P63079 26-473 partner) above
# α3β3γ2 GABAA receptor, sequence (P18508 39-466): as the sequence (P18508 39-466) above
structure (smiles),measurement,setting,value
"C#Cc1ccc2c(c1)C(=O)N(C)Cc1c(C(=O)OCCCOC(=O)c3ncn4c3CN(C)C(=O)c3cc(C#C)ccc3-4)ncn1-2 [XLi-093, 1,3-Bis(8-acetyleno-5,6-dihydro-5-methyl-6-oxo-4H-imidazo[1,5a][1,4]-benzodiaze-pine-3-carboxy)propyl diester]",modulation of GABA induced chloride flux (in words),"[1]; 1 uM, α3β3γ2",did not modulate
same,influence on diazepam stimulation of GABA-induced current (in words),"[1]; 1 μM, α3β3γ2",only marginally influenced
same,Ki,[2],15 nM
same,affinity at other BzR/GABA(A) subtypes than α5 (in words),[3],little or no affinity
same,triggering of chloride currents (in words),[4]; up to a concentration of 1 nM,did not trigger chloride currents
same,crossing of the blood brain barrier (in words),[5],does cross the blood brain barrier
same,modulation of GABA induced chloride flux (in words),"[6]; 1 uM, α1β3γ2",did not modulate
same,influence on diazepam stimulation of GABA-induced current (in words),"[6]; 1 μM, α1β3γ2",only marginally influenced
same,performance / mean delay under titrating delayed matching to position schedule (in words),[7],does indeed enhance performance
same,modulation of GABA induced chloride flux (in words),"[8]; 1 uM, α5β3γ2",very slightly inhibited currents
same,influence on diazepam stimulation of GABA-induced current (in words),"[8]; 1 μM, α5β3γ2",shifted the diazepam dose response curve to the right
same,inhibition of diazepam-stimulated currents (in words),[8]; α5β3γ2 receptors,dose dependently and completely inhibit
same,modulation of GABA induced chloride flux (in words),"[9]; 1 uM, α2β3γ2",did not modulate
same,influence on diazepam stimulation of GABA-induced current (in words),"[9]; 1 μM, α2β3γ2",only marginally influenced
C#Cc1ccc2c(c1)C(=O)N(C)Cc1c(C(=O)OC(C)(C)C)ncn1-2 [RY024],reduction of the stimulation by 30 nM Diazepam,"[1]; 1 μM compound, α3 containing receptors, GABA EC3",96.3±4.7%
same,Estimated maximum modulation ± SD,"[1]; GABA EC20, α3β3γ2, extrapolated by curve-fit",−3.3±2.1%
same,efficacy / modulation of GABA elicited currents at α3 (in words),[1]; oocytes,no apparent modulation
same,Estimated maximum modulation ± SD,"[10]; GABA EC20, α6β3γ2, extrapolated by curve-fit",+35.2 ± 1.5%
same,efficacy / modulation of GABA elicited currents at α6 (in words),[10]; oocytes,weakly stimulated
same,triggering of chloride currents (in words),[4]; concentrations up to 1 μM,did not trigger chloride currents
same,Estimated maximum modulation ± SD,"[11]; GABA EC20, α4β3γ2, extrapolated by curve-fit",+43.0 ± 15.9%
same,efficacy / modulation of GABA elicited currents at α4 (in words),[11]; oocytes,weakly stimulated
same,Estimated maximum modulation ± SD,"[6]; GABA EC20, α1β3γ2, extrapolated by curve-fit",−31.0±2.5%
same,efficacy / modulation of GABA elicited currents at α1 (in words),[6]; oocytes,reduced GABA elicited currents in a concentration dependent manner
same,Estimated maximum modulation ± SD,"[8]; GABA EC20, α5β3γ2, extrapolated by curve-fit",−40.4±0.8%
same,efficacy / modulation of GABA elicited currents at α5 (in words),[8]; oocytes,reduced GABA elicited currents in a concentration dependent manner
same,EC50 lower for α5 containing receptors than for α1 and α2,[8]; reduction of GABA elicited currents,~10 fold
same,Estimated maximum modulation ± SD,"[9]; GABA EC20, α2β3γ2, extrapolated by curve-fit",−20.7±1.2%
same,efficacy / modulation of GABA elicited currents at α2 (in words),[9]; oocytes,reduced GABA elicited currents in a concentration dependent manner
C#Cc1ccc2c(c1)C(c1ccccc1)=NCC(=O)N2C [QH-ii-066],Ki,[12],> 70 nM
same,Ki,[13],< 50 nM
same,Ki,[14],< 10 nM
same,Ki,[15],< 50 nM
"CCOC(=O)c1ncn2c1CN(C)C(=O)c1cc(CC)ccc1-2 [RY10, Ethyl 8-Ethyl-5,6-dihydro-5-methyl-6-oxo-4H-imidazo[1,5a][1,4]benzodiazepine-3-carboxylate]",reversal of scopolamine-induced memory impairment (in words),[16],potently reversed scopolamine-induced memory impairment
